Series [1] deals with rat embryo ventral mesencephalic (VM) cells. As to the kind of experiment: Neuroprotection assay: NMDA injury of ventral mesencephalic cultures, read by high affinity 3H-dopamine uptake. The format is cell-based. To be noted: embryonic day 15 Sprague-Dawley rat VM cells, NMDA 100-400 μM for 20 hours, read-out: DAT (VM) IC50. From the text:
The neuroprotective activity of the compounds of this invention may be assayed using rat embryo ventral mesencephalic cells in culture which are subsequently exposed to the glutamate receptor agonist NMDA. This assay is described in detail in the example section.
The ventral mesencephalic region was dissected out of embryonic day 15 Sprague-Dawley rat embryos (Harlan), dissociated into single cell suspension by a combination of trypsinization and trituration (Costantini et al., Neurobiol Dis., pp. 97-106 (1998). Dissociated VM cells were plated into poly-L-ornithine-coated 96-well plates at a density of 85,000 cells/well in 100 uL of DMEM supplemented with 18% heat-inactivated horse serum, 0.24% glucose, 2 mM glutamine and 50 u/ml pernicillin/streptomycin and incubated in a 5% CO2 incubator. After one day in culture (DIV1), the medium was replaced with 100 μL of a defined medium (DMEM supplemented with 1×N2 cocktail (Gibco-BRL), 0.12% glucose, 2 mM glutamine, and […] penicillin/streptomycin) containing DMSO or various concentrations of the compounds of this invention. On DIV5, neuroexcitotoxic injury was induced by the addition of various concentrations of the glutamate receptor agonist NMDA (100-400 μM). Cultures were incubated with the neurotoxin for 20 hours and the effects of neurophilin compounds were assessed using high affinity ^3H-dopamine uptake according to a procedure published by Park and Mytilineou [Brain Res., 599, pp. 83-97 (1992)].

pIC50: −log10 of the molar value. Structures can show the parent of a compound that is named as a salt.

As for `O=C(C1CCCCN1)N1CCN(C(c2ccc(F)cc2F)c2ccc(F)cc2F)CC1` (stereo not shown) (as salt: hydrochloride) [Compound 9, {4-[Bis-(2,4-difluoro-phenyl)-methyl]-piperazin-1-yl}-piperidin-2-yl-methanone], the melting point lay within 84 to 85 °C. For the compound `O=C(C1CCCCN1)N1CCN(C(c2ccc(F)cc2F)c2ccc(F)cc2F)CC1` (stereo not shown) [Compound 9, {4-[Bis-(2,4-difluoro-phenyl)-methyl]-piperazin-1-yl}-piperidin-2-yl-methanone], the pIC50 in series [1] is 6.84. The same measure, in the same setting: next, `O=C(C1CCCCN1)N1CCN(C(c2ccc(F)c(F)c2)c2ccc(F)c(F)c2)CC1` (stereo not shown) [Compound 17, (4-(Bis-(3,4-difluoro-phenyl)-methyl)piperazine-1-yl)-piperidin-2-yl-methanone]: 8.22; `O=C(C1CCCCN1)N1CCN(C(c2ccc(F)cc2)c2ccc(F)cc2)CC1` (stereo not shown) [Compound 28, (4-(Bis-(4-fluoro-phenyl)-methyl)piperazine-1-yl)-piperidin-2-yl-methanone dihydrochloride]: 7.92.

As a reminder, the melting point is the temperature of the solid-liquid transition. As a reminder, the pIC50 is the IC50 on a negative log10 scale, so that one unit is a factor of ten.

The values are drawn from patent US20040180880A1, “Piperazine and piperidine derivatives” (priority 2002, published 2004).
